Reference: ChEMBL document CHEMBL2401670, “Synthesis and biological evaluation of rhodanine derivatives bearing a quinoline moiety as potent antimicrobial agents” (Bioorg Med Chem Lett, 2013)
≈ marks a conversion by molar mass, not a printed value.

Key:
Escherichia coli = test: Antibacterial activity against Escherichia coli CCARM 1356 after 24 hrs by broth microdilution method; type: functional; settings: CCARM 1356, 24 h
Staphylococcus aureus [1] = test: Antibacterial activity against quinolone-resistant Staphylococcus aureus CCARM 3505 after 24 hrs by broth microdilution method; type: functional; settings: CCARM 3505, 24 h
Staphylococcus aureus [2] = test: Antibacterial activity against Staphylococcus aureus KCTC 209 after 24 hrs by broth microdilution method; type: functional; settings: KCTC 209, 24 h
Staphylococcus aureus [3] = test: Antibacterial activity against quinolone-resistant Staphylococcus aureus CCARM 3519 after 24 hrs by broth microdilution method; type: functional; settings: CCARM 3519, 24 h
Staphylococcus aureus [4] = test: Antibacterial activity against Staphylococcus aureus RN4220 after 24 hrs by broth microdilution method; type: functional; settings: RN4220, 24 h
Staphylococcus aureus [5] = test: Antibacterial activity against methicillin-resistant Staphylococcus aureus CCARM 3167 after 24 hrs by broth microdilution method; type: functional; settings: CCARM 3167, 24 h
Staphylococcus aureus [6] = test: Antibacterial activity against methicillin-resistant Staphylococcus aureus CCARM 3506 after 24 hrs by broth microdilution method; type: functional; settings: CCARM 3506, 24 h
Staphylococcus aureus [7] = test: Antibacterial activity against Staphylococcus aureus KCTC 503 after 24 hrs by broth microdilution method; type: functional; settings: KCTC 503, 24 h
Staphylococcus aureus [8] = test: Ratio of gatifloxacin MIC to compound MIC for quinolone-resistant Staphylococcus aureus CCARM 3519; type: functional
Staphylococcus aureus [9] = test: Ratio of norfloxacin MIC to compound MIC for quinolone-resistant Staphylococcus aureus CCARM 3519; type: functional
Staphylococcus aureus [10] = test: Ratio of norfloxacin MIC to compound MIC for methicillin-resistant Staphylococcus aureus CCARM 3506; type: functional
Staphylococcus aureus [11] = test: Ratio of moxifloxacin MIC to compound MIC for quinolone-resistant Staphylococcus aureus CCARM 3505; type: functional
Staphylococcus aureus [12] = test: Ratio of norfloxacin MIC to compound MIC for methicillin-resistant Staphylococcus aureus CCARM 3167; type: functional
Staphylococcus aureus [13] = test: Ratio of norfloxacin MIC to compound MIC for quinolone-resistant Staphylococcus aureus CCARM 3505; type: functional
Staphylococcus aureus [14] = test: Ratio of gatifloxacin MIC to compound MIC for quinolone-resistant Staphylococcus aureus CCARM 3505; type: functional
Staphylococcus aureus [15] = test: Ratio of moxifloxacin MIC to compound MIC for quinolone-resistant Staphylococcus aureus CCARM 3519; type: functional
HeLa = test: Cytotoxicity against human HeLa cells after 48 hrs by MTT assay; type: cell-based

SMILES | MIC (Escherichia coli) | MIC (Staphylococcus aureus [1]) | MIC (Staphylococcus aureus [2]) | MIC (Staphylococcus aureus [3]) | MIC (Staphylococcus aureus [4]) | MIC (Staphylococcus aureus [5]) | MIC (Staphylococcus aureus [6]) | MIC (Staphylococcus aureus [7]) | Ratio (Staphylococcus aureus [8]) | Ratio (Staphylococcus aureus [9]) | Ratio (Staphylococcus aureus [10]) | Ratio (Staphylococcus aureus [11]) | Ratio (Staphylococcus aureus [12]) | Ratio (Staphylococcus aureus [13]) | Ratio (Staphylococcus aureus [14]) | Ratio (Staphylococcus aureus [15]) | IC50 (HeLa)
CC(C)C[C@@H](C(=O)O)N1C(=O)/C(=C/c2cc3cc(OCc4ccc(F)cc4)ccc3nc2Cl)SC1=S | > 64 µg/mL | 2 µg/mL (≈ 3.67 µM) | 8 µg/mL (≈ 14.7 µM) | 1 µg/mL (≈ 1.83 µM) | 2 µg/mL (≈ 3.67 µM) | 2 µg/mL (≈ 3.67 µM) | 2 µg/mL (≈ 3.67 µM) | 8 µg/mL (≈ 14.7 µM) |  |  |  |  |  |  |  |  | 
CCC(C)[C@@H](C(=O)O)N1C(=O)/C(=C/c2cc3cc(OCc4cccc(Cl)c4)ccc3nc2Cl)SC1=S (stereo not given in full) | > 64 µg/mL | 1 µg/mL (≈ 1.78 µM) | > 64 µg/mL | 2 µg/mL (≈ 3.56 µM) | 2 µg/mL (≈ 3.56 µM) | 2 µg/mL (≈ 3.56 µM) | 1 µg/mL (≈ 1.78 µM) | 4 µg/mL (≈ 7.12 µM) |  |  |  |  |  |  |  |  | 
CC(C)C[C@@H](C(=O)O)N1C(=O)/C(=C/c2cc3cc(OCc4ccccc4Cl)ccc3nc2Cl)SC1=S | > 64 µg/mL | 1 µg/mL (≈ 1.78 µM) | 4 µg/mL (≈ 7.12 µM) | 2 µg/mL (≈ 3.56 µM) | 1 µg/mL (≈ 1.78 µM) | 1 µg/mL (≈ 1.78 µM) | 1 µg/mL (≈ 1.78 µM) | 8 µg/mL (≈ 14.2 µM) |  |  |  |  |  |  |  |  | 
Cc1onc(-c2ccccc2)c1C(=O)N[C@@H]1C(=O)N2[C@@H]1SC(C)(C)[C@@H]2C(=O)O [OXACILLIN] | > 64 µg/mL | 1 µg/mL (≈ 2.49 µM) | 1 µg/mL (≈ 2.49 µM) | 1 µg/mL (≈ 2.49 µM) | 1 µg/mL (≈ 2.49 µM) | > 64 µg/mL | > 64 µg/mL | 1 µg/mL (≈ 2.49 µM) |  |  |  |  |  |  |  |  | 
O=C(O)[C@H](Cc1ccccc1)N1C(=O)/C(=C/c2cc3cc(OCc4ccccc4F)ccc3nc2Cl)SC1=S | > 64 µg/mL | 2 µg/mL (≈ 3.45 µM) | 64 µg/mL (≈ 111 µM) | 2 µg/mL (≈ 3.45 µM) | 4 µg/mL (≈ 6.91 µM) | 1 µg/mL (≈ 1.73 µM) | 2 µg/mL (≈ 3.45 µM) | 8 µg/mL (≈ 13.8 µM) |  |  |  |  |  |  |  |  | 
O=C(O)[C@H](Cc1ccccc1)N1C(=O)/C(=C/c2cc3cc(OCc4ccc(F)cc4)ccc3nc2Cl)SC1=S | > 64 µg/mL | 2 µg/mL (≈ 3.45 µM) | 32 µg/mL (≈ 55.3 µM) | 4 µg/mL (≈ 6.91 µM) | 4 µg/mL (≈ 6.91 µM) | 2 µg/mL (≈ 3.45 µM) | 2 µg/mL (≈ 3.45 µM) | 4 µg/mL (≈ 6.91 µM) |  |  |  |  |  |  |  |  | 
CCC(C)[C@@H](C(=O)O)N1C(=O)/C(=C/c2cc3cc(OCc4ccc(F)cc4)ccc3nc2Cl)SC1=S (stereo not given in full) | > 64 µg/mL | 2 µg/mL (≈ 3.67 µM) | 2 µg/mL (≈ 3.67 µM) | 1 µg/mL (≈ 1.83 µM) | 1 µg/mL (≈ 1.83 µM) | 2 µg/mL (≈ 3.67 µM) | 1 µg/mL (≈ 1.83 µM) | 4 µg/mL (≈ 7.34 µM) |  |  |  |  |  |  |  |  | 
O=C(O)[C@H](Cc1ccccc1)N1C(=O)/C(=C/c2cc3cc(OCc4ccccc4Br)ccc3nc2Cl)SC1=S | > 64 µg/mL | 2 µg/mL (≈ 3.13 µM) | 8 µg/mL (≈ 12.5 µM) | 2 µg/mL (≈ 3.13 µM) | 4 µg/mL (≈ 6.25 µM) | 2 µg/mL (≈ 3.13 µM) | 2 µg/mL (≈ 3.13 µM) | 8 µg/mL (≈ 12.5 µM) |  |  |  |  |  |  |  |  | 
CCC(C)[C@@H](C(=O)O)N1C(=O)/C(=C/c2cc3cc(OCc4cccc(F)c4)ccc3nc2Cl)SC1=S (stereo not given in full) | > 64 µg/mL | 2 µg/mL (≈ 3.67 µM) | 32 µg/mL (≈ 58.7 µM) | 2 µg/mL (≈ 3.67 µM) | 2 µg/mL (≈ 3.67 µM) | 2 µg/mL (≈ 3.67 µM) | 1 µg/mL (≈ 1.83 µM) | 8 µg/mL (≈ 14.7 µM) |  |  |  |  |  |  |  |  | 
CC(C)C[C@@H](C(=O)O)N1C(=O)/C(=C/c2cc3cc(OCc4ccc(Cl)cc4)ccc3nc2Cl)SC1=S | > 64 µg/mL | 1 µg/mL (≈ 1.78 µM) | 4 µg/mL (≈ 7.12 µM) | 1 µg/mL (≈ 1.78 µM) | 1 µg/mL (≈ 1.78 µM) | 1 µg/mL (≈ 1.78 µM) | 1 µg/mL (≈ 1.78 µM) | 4 µg/mL (≈ 7.12 µM) | 4 | 4 | 4 | 4 | 4 | 4 | 4 | 4 | 
CCn1cc(C(=O)O)c(=O)c2cc(F)c(N3CCNCC3)cc21 [NORFLOXACIN] | 16 µg/mL (≈ 50.1 µM) | > 64 µg/mL | 2 µg/mL (≈ 6.26 µM) | > 64 µg/mL | 2 µg/mL (≈ 6.26 µM) | 8 µg/mL (≈ 25.1 µM) | 4 µg/mL (≈ 12.5 µM) | 2 µg/mL (≈ 6.26 µM) |  |  |  |  |  |  |  |  | 
Cc1ccc(COc2ccc3nc(Cl)c(/C=C4\SC(=S)N([C@@H](CC(C)C)C(=O)O)C4=O)cc3c2)cc1 | > 64 µg/mL | 1 µg/mL (≈ 1.85 µM) | 8 µg/mL (≈ 14.8 µM) | 1 µg/mL (≈ 1.85 µM) | 1 µg/mL (≈ 1.85 µM) | 1 µg/mL (≈ 1.85 µM) | 2 µg/mL (≈ 3.7 µM) | 8 µg/mL (≈ 14.8 µM) |  |  |  |  |  |  |  |  | 8.84 µg/mL (≈ 16.3 µM)
